Experiments:
GL26 glioblastoma = conditions: mouse, in vivo
Description: In addition, the glioblastoma targeting effect of the immune checkpoint blocking nanocage was identified. GL26, a glioblastoma cell line, was injected into the left side of the mouse brain to create an orthotopic GBM model and fluorescently labeled PBP1-N-FtH was injected into the tail vein [control: saline, ferritin].

[1] = Dynamic light scattering (DLS) analysis of cage size; type: physicochemical
CT-2A glioma [2] = assay: Antitumor activity in orthotopic CT-2A glioma mouse model; type: in vivo, C57BL/6 mice; conditions: 5 mg/kg intravenously three times per week, six injections
Description: (A) Experimental scheme for antitumor treatments. CT-2A syngeneic mouse brain tumor cells were implanted into the brains of C57BL/6 mice. Treatments were initiated at 7 days after confirming tumor growth by MRI. PpNF (5 mg/kg, n=3) or wFTH (5 mg/kg, n=3) were intravenously injected three times per week. (B) Representative brain MRI images showing tumor growth at 7, 14, and 21 days. The dotted line indicates the tumor region. (C) Tumor volumes measured by MRI. (D) Body weights. Data represent mean±SEM (*p<0.05; t-test). The data presented are representative of three independent experiments. B6 mice aged 6-8 weeks were anesthetized with an intraperitoneal injection of Zoletil 50 (20 mg/kg, Virba) and Rompun (4 mg/kg, Bayer). For stereotactic intracranial injections of CT-2A cells, the surgical site was shaved and prepared with 70% ethyl alcohol. After disinfection and incision of the skin, tumor cells were stereotaxically implanted in the brain using the following coordinates: AP=+0.2 mm; ML=+2 mm; DV=−3 mm from the bregma. CT-2A cells (10^4 cells) were resuspended in 3 μl of PBS and implanted at an infusion rate of 3 μl/5 min. […] Tumor growth was examined by animal MRI (7T BioSpec 70/20USR) in the tumor-bearing mice using Onis 2.5 viewer software, and tumor volume was calculated (Average tumor cross-sectional area (mm^2)×summed thickness of tumor cross-sections (mm).

[3] = tested on: CT26 cells expressing PD-L1; assay: Culture cell binding assay (confocal) on CT26 cells; type: cell-based, mouse; conditions: 100 nM, 4° C., 1 hour; anti-human ferritin heavy chain antibody staining
Description: (§1) Confocal laser scanning microscopy (Confocal) was performed. After culturing triple negative breast cancer cells (MDA-MB 231) or colorectal cancer cells (CT26), a group treated with 25 ng/ml of interferon-γ and a group without treatment were cultured at 37° C. for 24 hours. These cells are cancer cells expressing the PD-L1 receptor and are known to have expression increased upon interferon-γ treatment. […] In order to block nonspecific binding of PD-L1 proteins, blocking was performed using 1% BSA dissolved in PBS at room temperature for 1 hour, then BSA was removed, and PpNF, PpLF, and PpCF (100 nM) were reacted at 4° C. for 1 hour. After washing with PBS, a reaction was performed using anti-human ferritin heavy chain antibodies (1:200 ratio) for 1 hour, followed by staining (green). After fixing with 4% paraformaldehyde, observation was performed under a confocal microscope. To observe the nucleus, DAPI was dissolved in PBS in a ratio of 1:1000, and staining was performed at room temperature for 5-10 minutes (blue).

CT-2A glioma [4] = tested on: CT-2A glioma; design: species or system C57BL/6 mice; conditions: mouse, in vivo, iv
Description: (A) Representative images of the upper body of mice. The yellow circle indicates the tumor. C57BL/6 mice were implanted with CT-2A glioma cells (3×10^5). At 14 days after intracranial inoculation, the tumor-bearing mice were intravenously injected with Flamma 675-labeled PpNF or wFTH followed by in vivo scanning with the IVIS imaging system. (B) Ex vivo biodistribution was examined at 24 h postinjection.
B6 mice aged 6-8 weeks were anesthetized with an intraperitoneal injection of Zoletil 50 (20 mg/kg, Virba) and Rompun (4 mg/kg, Bayer). For stereotactic intracranial injections of CT-2A cells, the surgical site was shaved and prepared with 70% ethyl alcohol. After disinfection and incision of the skin, tumor cells were stereotaxically implanted in the brain using the following coordinates: AP=+0.2 mm; ML=+2 mm; DV=−3 mm from the bregma. CT-2A cells (10^4 cells) were resuspended in 3 μl of PBS and implanted at an infusion rate of 3 μl/5 min.
For in vivo targeting of PD-L1pep ferritin nanocages in intracranial brain tumors, CT-2A cells (3×10^5 cells) were resuspended in 3 μl of PBS and implanted in the brain. At 14 days after implantation of CT-2A cells, Flamma 675-labeled Pp1NF, Pp2NF, and wt ferritin were intravenously injected (n=3 mice/group). […] Fluorescence emission values were analyzed as photons per second per centimeter squared per steradian (p/s/cm^2/sr).

PD-1/PD-L1 binding = biological target: T1, PD-1/PD-L1 binding (Mus musculus, UniProt Q9EP73); assay: Co-culture of CT26 cancer cells and activated CD8+ T cells (immune checkpoint inhibitory function in vitro); type: cell-based
T1 construct: endogenous in cells
Description: CD8^+ T cells were extracted from the spleen obtained by sacrificing BALB/C mice. Extracted CD8^+ T cells were treated with interleukin-2/interleukin-15 and anti-CD-3 antibody/anti-CD-28 antibody each for 24 hours for activation. Prior to treating activated CD8^+ T cells with CFSE and performing symbiotic culture of tumor cells (CT26, mouse colon cancer), tumor cells were pretreated with anti-PD-L1 antibody, PpNF (25 nM or 50 nM), and PD-L1pep1 (50 nM), respectively, and interactions of PD-L1 of tumor cells and […] CD8^+ T cells were inhibited, respectively. After symbiotic culture for 24 hours, CD8^+ T cells were isolated (FIG. 4A). The degree of CFSE binding to isolated T cells was measured with a flow cytometer (FIG. 4B). In addition, the amount of interferon gamma secreted by isolated T cells was measured using an enzyme-linked immunosorbent assay (FIG. 4C).
CD8^+ T cells isolated from mice were activated (IL-2/IL-15 treatment and anti-CD3/anti-CD28 treatment), labeled with fluorescence (CFSE staining), and cultured with CT26 colorectal cancer cells.

CT26 tumor = type: in vivo, BALB/c wildtype mice
Description: CT26 cells were injected subcutaneously into the upper right thigh of BALB/c wildtype mice. When the tumor was about 100 mm^3 in size, mice were randomly divided into four groups. […] A total of 10 injections were performed once every two days (once every 4 days, repeated 6 times in total for anti-PD-L1 antibodies) to measure tumor size and weight of mice (FIGS. 7B and 7D). After 3 weeks, the tumor was removed by sacrificing mice and the tumor was weighed (FIG. 7C). The extracellular matrix of the removed tumor was degraded with collagenase to form single cells, and antibodies against labeled proteins of CD4^+ T cells, CD8^+ T cells, and regulatory T cells were each treated to analyze how many T cells are each present in the tumor by flow cytometry (FIGS. 7E to 7G).

[5] = tested on: MCF-7 cells that do not express PD-L1; assay: Culture cell binding assay (confocal) on MCF-7 control cells; type: cell-based; conditions: 100 nM, 4° C., 1 hour; PD-L1-negative control cells
[6] = tested on: CT-2A cells overexpressing PD-L1; assay: In vitro binding to CT-2A glioma cells; type: cell-based, mouse; conditions: 4° C., 1 h; compared to wFTH
Description: (§2) Mouse glioma cells, CT-2A or GL26 cells, were treated with PpNF or wild-type ferritin (wFTH) at 4° C. for 1 h; binding was monitored by antiferritin antibody (green). Nuclei were visualized by counterstaining with DAPI (blue). Scale bars: 30 μm.

[7] = tested on: GL26 cells overexpressing PD-L1; assay: In vitro binding to GL26 glioma cells; type: cell-based, mouse; conditions: 4° C., 1 h; compared to wFTH
Description: as §2

[8] = tested on: CD8+ T cells cocultured with CT-2A; assay: Triple coculture of CD8+ T cells with CT-2A glioma cells and primary glia; type: cell-based, mouse; conditions: 25 nM, 48 h triple coculture
Description: CD8^+ T cells were directly cocultured with CT-2A (A,B) or GL26 (C, D) glioma cells in the presence of glia. Cocultures were treated with 25 nM wild-type nanocage (wFTH), PD-L1pep1 ferritin nanocage (PpNF) or their corresponding buffer (buf), respectively. Fold changes in IFN-γ secretion during triple coculture using (A) CT-2A or (C) GL26 cells with the indicated treatments. T cell-only group was used as a control. (B) Proliferation of CD8^+ T cells during coculture with CT-2A and primary glia. The percentages of daughter cells upon cell division were determined using CellTrace Violet (CTV) dye. (D) Expression of CD107a on the surface of CD8^+ T cells after triple coculture using GL26. The percentages of CD107a^+ populations in live CD8^+ T cells were measured by flow cytometry. All graphs represent mean±SD; n=3 independent wells. […]
(§3) Cocultures were treated with 25 nM ferritin nanocages (PpNF or Pp2NF) including the wild-type nanocage (wFTH) or their corresponding buffer, respectively. […] IFN-γ concentrations were quantified with a mouse IFN-γ ELISA kit (R&D Systems Inc., SMIF00) as previously described. […]
Annexin-V as described above. The percentages of CTV dilution upon cell division were measured by flow cytometry. All flow cytometry data were obtained using a BD FACS Verse cytometer and analyzed by FlowJo software (Tree Star).

[9] = Biotoxicity via blood and serologic analysis; type: in vivo, mice
Description: After antitumor animal experiments, blood and serum were collected from each group when sacrificing mice, and the amounts of red blood cells, hemoglobin, hematocrit, white blood cells, and neutrophils in the blood, blood urea nitrogen in serum, creatinine, alanine aminotransferase, and aspartate aminotransferase were measured and compared.

[10] = tested on: CD8+ T cells cocultured with GL26; assay: Triple coculture of CD8+ T cells with GL26 glioma cells and primary glia; type: cell-based, mouse; conditions: 25 nM, 48 h triple coculture, IFN-γ secretion, CD107a
Description: CD8^+ T cells were directly cocultured with CT-2A (A,B) or GL26 (C, D) glioma cells in the presence of glia. Cocultures were treated with 25 nM wild-type nanocage (wFTH), PD-L1pep1 ferritin nanocage (PpNF) or their corresponding buffer (buf), respectively. Fold changes in IFN-γ secretion during triple coculture using (A) CT-2A or (C) GL26 cells with the indicated treatments. T cell-only group was used as a control. (B) Proliferation of CD8^+ T cells during coculture with CT-2A and primary glia. The percentages of daughter cells upon cell division were determined using CellTrace Violet (CTV) dye. (D) Expression of CD107a on the surface of CD8^+ T cells after triple coculture using GL26. The percentages of CD107a^+ populations in live CD8^+ T cells were measured by flow cytometry. All graphs represent mean±SD; n=3 independent wells. (*p<0.05, **p<0.01, ***p<0.001, and ****p<0.0001; multiple comparisons were conducted using one-way ANOVA followed by Tukey's test.)
Primary glia were cultured from C57BL/6 mice, and the cells were seeded in a 96-well flat bottom plate at a density of 10^4 cells/well. […]
as §3

[11] = tested on: MDA-MB231 cells expressing PD-L1; assay: Culture cell binding assay (confocal) on MDA-MB231 cells; type: cell-based; conditions: 100 nM, 4° C., 1 hour; anti-human ferritin heavy chain antibody staining
Description: as §1

T1 sequence (Q9EP73 19-290): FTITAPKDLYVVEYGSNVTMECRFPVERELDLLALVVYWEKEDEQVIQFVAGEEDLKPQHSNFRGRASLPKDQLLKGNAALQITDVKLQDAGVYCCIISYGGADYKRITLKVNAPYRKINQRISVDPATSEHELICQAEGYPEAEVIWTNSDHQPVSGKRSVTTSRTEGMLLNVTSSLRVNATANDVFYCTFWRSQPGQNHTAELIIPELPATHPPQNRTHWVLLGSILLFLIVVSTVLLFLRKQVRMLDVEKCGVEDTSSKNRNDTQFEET

## PpNF: Ferritin nanocage: PD-L1-binding peptide 1 (CLQKTPKQC) inserted at nitrogen terminal of human ferritin heavy chain fragment (1-161) with GG linker
GL26 glioblastoma
  glioblastoma targeting (brain fluorescence signal): targeted to the tumor site on the left side of the brain
[1]
  cage size (DLS): about 24 nm
CT-2A glioma [2]
  antitumor effects (tumor volume by MRI): showed antitumor effects
[3]
  binding in CT26 cells: bound
CT-2A glioma [4]
  BBB crossing: crossed the BBB
  accumulation in glioblastoma in the brain: accumulated in glioblastoma expressed in the brain by 24 hours
PD-1/PD-L1 binding; 24 hours co-culture, PpNF 25 nM or 50 nM
  IFN-γ secreted by T cells (ELISA): IFN-γ increment
PD-1/PD-L1 binding; versus PD-L1 antibody, PD-L1pep1 (50 nM)
  immune checkpoint inhibitory effect versus comparators: better than that of PD-L1 antibody or PD-L1pep1
CT26 tumor; 10 mg/kg tail vein, 10 injections once every two days
  tumor growth: significantly inhibited tumor growth compared to the control
CT26 tumor; after 3 weeks
  weight of the tumor: much smaller
CT26 tumor; flow cytometry
  proportion of CD8+ T cells in the tumor: increasing the proportion of CD8^+ T cells in the tumor
  ratio of CD8+ T cells and regulatory T cells in the tumor: significantly increased compared to the control
[5]
  binding in MCF-7 cells: the binding did not take place
[6]
  binding in CT-2A glioma cells: bound specifically
[7]
  binding in GL26 glioma cells: bound specifically
[8]; CTV dye
  proliferation of CD8+ T cells: increased
[8]; IFN-γ secretion
  activity of CD8+ T cells: increased
[9]; blood after antitumor animal experiments
  hematologic change: no significant hematologic change
[9]; serum after antitumor animal experiments
  hepatotoxicity or nephrotoxicity (BUN, creatinine, ALT, AST): No hepatotoxicity or nephrotoxicity was observed
[10]
  activity of CD8+ T cells: increased
[11]
  binding in MDA-MB231 cells: bound

Reference: US20230374113A1, “FERRITIN NANOCAGE FUSED WITH PD-L1-BINDING PEPTIDE 1 AND USE THEREOF AS ANTICANCER IMMUNOTHERAPY AGENT” (KYUNGPOOK NATIONAL UNIVERSITY INDUSTRY-ACADEMIC COOPERATION …, priority 2020, published 2023)
